Measured values as given in patent US20100144755A1 (Glaxo Group Limited, priority 2006, published 2010).
Structures can show the parent of a compound that is named as a salt. Where two headings read alike, the source gives them in different places.

Columns and labels:
[1] = system: LPS-stimulated TNFalpha production in human whole blood; assay: LPS-stimulated cytokine production in human whole blood; format: cell-based; details: LPS 50 ng/ml final, 4 hour incubation, read-out: IC50, LPS-stimulated TNF-alpha production in human whole blood
Protocol: LPS-Stimulated Cytokine Production in Human Whole Blood
Assay: Test compound concentrations were prepared at 10× concentrations and LPS prepared at 1 ug/ml (final conc. of 50 ng/ml LPS) and added in 50 uL volumes to 1.5 mL eppendorf tubes. Heparinized human whole blood was obtained from healthy volunteers and was dispensed into eppendorf tubes or multiwell plates containing compounds and LPS in 0.2-0.4 mL volumes and the tubes incubated at 37 C. In some studies, compound was incubated with blood for up to 30 min prior to addition of LPS. Following a 4 hour incubation, the tubes or plates were centrifuged to remove cells and plasma was withdrawn and frozen at −80 C.
Cytokine measurement: IL-Ibeta and/or TNFalpha were quantified using a standardized ELISA, or similar technology.

Recombinant human p38α = biological target: T1, Recombinant human p38α (Homo sapiens, UniProt Q16539); assay: Time-resolved fluorescence resonance energy transfer (TR-FRET) kinase assay (standard and low volume); format: biochemical
T1 construct: His; made in house
T1 sequence (Q16539 whole entry): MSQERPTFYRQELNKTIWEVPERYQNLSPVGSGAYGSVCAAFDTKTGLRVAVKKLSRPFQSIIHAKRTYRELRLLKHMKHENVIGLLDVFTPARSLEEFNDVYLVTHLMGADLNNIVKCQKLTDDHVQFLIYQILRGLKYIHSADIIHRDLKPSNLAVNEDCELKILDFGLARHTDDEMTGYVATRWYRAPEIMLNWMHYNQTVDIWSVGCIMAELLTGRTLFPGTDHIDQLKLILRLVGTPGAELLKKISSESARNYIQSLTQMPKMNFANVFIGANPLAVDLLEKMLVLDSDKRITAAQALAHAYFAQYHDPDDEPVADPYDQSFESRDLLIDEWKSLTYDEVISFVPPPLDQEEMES
Protocol: Time-Resolved Fluorescence Resonance Energy Transfer Linase Standard Assay
(§1) Recombinant human p38α was expressed as a His-tagged protein. To activate this protein, 3 μM unactivated p38α was incubated in 200 mM Hepes pH 7.4, 625 mM NaCl, 1 mM DTT with 27 nM active MKK6 (Upstate), 1 mM ATP and 10 mM MgCl2 The activity of the MKK6-activated p38α was assessed using a time-resolved fluorescence resonance energy transfer (TR-FRET) assay.
Biotinylated-GST-ATF2 (residues 19-96, 400 nM final), ATP ([…]) and MgCl2 (5 mM final) in assay buffer (40 mM HEPES pH 7.4, 1 mM DTT) were added to wells containing 1 ul of various concentrations of compound or DMSO vehicle (3% final) in NUNC 384 well black plate. The reaction was initiated by the addition of MKK6-activated p38 (100 pM final) to give a total volume of 30 ul. The reaction was incubated for 120 minutes at room temperature, then terminated by the addition of 15 μl of 100 mM EDTA pH 7.4. Detection reagent (15 μl) in buffer (100 mM HEPES pH 7.4, 150 mM NaCl, 0.1% w/v BSA, 1 mM DTT) containing antiphosphothreonine-ATF2-71 polyclonal antibody (Cell Signalling Technology, Beverly Mass., USA) labelled with W-1024 europium chelate (Wallac O Y, Turku, Finland), and APC-labelled streptavidin (Prozyme, San Leandro, Calif., USA) was added and the reaction was further incubated for 60 minutes at room temperature. The degree of phosphorylation of GST-ATF2 was measured using a Packard Discovery plate reader (Perkin-Elmer Life Sciences, Pangbourne, UK) as a ratio of specific 665 nm energy transfer signal to reference europium 620 nm signal.
Time-Resolved Fluorescence Resonance Energy Transfer Kinase Low Volume Assay
as §1, with “pH7.4,” for “pH 7.4,”
Biotinylated-GST-ATF2 (residues 19-96, 400 nM final), ATP (125 μM final) and MgCl2 (5 mM final) in assay buffer (40 mM HEPES pH 7.4, 1 mM DTT) were added to wells containing 0.1 μl of various concentrations of compound or DMSO vehicle (1.7% final) in Greiner low volume 384 well black plate. The reaction was initiated by the addition of MKK6-activated p38α (100 pM final) to give a total volume of 6 μl. […] The degree of phosphorylation of GST-ATF2 was measured using a BMG Rubystar plate reader (BMG, UK) as a ratio of specific 665 nm energy transfer signal to reference europium 620 nm signal.
It is noted that there are two assay formats shown above for the Time-resolved fluorescence resonance energy transfer kinase assay. […]

[2] = system: influx of neutrophils to the lung in LPS-challenged rats; assay: Rat LPS neutrophilia model; format: in vivo; details: LPS aerosol, intratracheal dosing, in at least one of the range of conditions tested, significance p<0.05
In short: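 Compound given intratracheally (200 ul suspension or dry powder via microsprayer) to isoflurane-anesthetized rats 15 min–24 h before 15 min LPS aerosol (100 ug/ml). Lavage 4 h post-challenge; neutrophils from differential counts. % inhibition versus no-compound controls at a given concentration and pretreat time.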

[3] = system: TNF-stimulated IL8 production by human neutrophils; assay: TNF-stimulated IL-8 production from human neutrophils; format: cell-based; details: Neutrophil, TNF 100 ng/ml, about 20 hrs, bounds reflect the top concentration screened, for 202(c) and 120 a range over multiple runs with ends given as 'greater than';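 note: IL-8 in cell-free supernatant quantified by sandwich ELISA, inhibition calculated against a compound-free control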
[4] = for 97(b) and 115 a broad range over multiple runs, lower end less than 4.6, read-out: pIC50, TR-FRET p38α kinase assay (converted)

Cc1ccc(C(=O)NCCc2ccccc2)cc1-c1nc(NC(CO)CO)nc2c1ccc(=O)n2-c1c(F)cccc1F [Example 93, 3-(8-(2,6-difluorophenyl)-2-{[2-hydroxy-1-(hydroxymethyl)ethyl]amino}-7-oxo-7,8-dihydropyrido[2,3-d]pyrimidin-4-yl)-4-methyl-N-(2-phenylethyl)benzamide trifluoroacetate]
IC50 [1]: > 1000 nM

Cc1ccc(C(=O)NC(C)C)cc1-c1nc(N(C)CCN(C)C)nc2c1ccc(=O)n2-c1c(F)cccc1F [Example 100, 3-{8-(2,6-difluorophenyl)-2-[[2-(dimethylamino)ethyl](methyl)amino]-7-oxo-7,8-dihydropyrido[2,3-d]pyrimidin-4-yl}-4-methyl-N-(1-methylethyl)benzamide]
IC50 [1]: > 1000 nM

Cc1ccc(C(=O)Nc2ccc(F)cc2)cc1-c1nc(N(C)CCCN(C)C)nc2c1ccc(=O)n2-c1c(F)cccc1F [Example 115, 3-{8-(2,6-difluorophenyl)-2-[[3-(dimethylamino)propyl](methyl)amino]-7-oxo-7,8-dihydropyrido[2,3-d]pyrimidin-4-yl}-N-(4-fluorophenyl)-4-methylbenzamide]
IC50 (Recombinant human p38α; [4]): ≥ 39.8 nM
inhibition of neutrophilia [2]: statistically nonsignificant inhibition

CCN(CC)CCCNc1nc(-c2ccc(C(=O)O)cc2)c2ccc(=O)n(-c3c(F)cccc3F)c2n1 [Example 188(a), 4-[2-{[3-(diethylamino)propyl]-amino}-8-(2,6-difluorophenyl)-7-oxo-7,8-dihydropyrido[2,3-d]pyrimidin-4-yl]benzoic acid]
IC50 (Recombinant human p38α; [4]): > 15800 nM
IC50 (Recombinant human p38α; no IC50 at a concentration of less than 16 uM, read-out: IC50, TR-FRET p38α kinase assay): ≥ 16000 nM
IC50 [3]: > 100 nM

Cc1ccc(C(=O)O)cc1-c1nc(-n2ccnc2CN)nc2c1ccc(=O)n2-c1c(F)cccc1F [Example 97(b), 3-[2-[2-(aminomethyl)-1H-imidazol-1-yl]-8-(2,6-difluorophenyl)-7-oxo-7,8-dihydropyrido[2,3-d]pyrimidin-4-yl]-4-methylbenzoic acid trifluoroacetate]
IC50 [1]: > 1000 nM
IC50 (Recombinant human p38α; [4]): ≥ 39.8 nM
